Assay results from ChEMBL document CHEMBL1143355, “Aryl sulphonyl amides as potent agonists of the growth hormone secretagogue (ghrelin) receptor” (Bioorg Med Chem Lett, 2009).

Tests used:
[1] = target: Growth hormone secretagogue receptor type 1 (Homo sapiens, UniProt Q92847); test: Agonist activity at human ghrelin receptor by cell based BACMAM FLIPR assay; format: functional
[2] = Half life in Sprague-Dawley rat at 1 mg/kg, iv; format: ADME, organism-based; parameters: dose 1 mg/kg, route intravenous; conditions: in vivo
Rattus norvegicus = test: AUC (0 to 6 hrs) in Sprague-Dawley rat at 3 mg/kg, po; format: ADME, organism-based, Plasma; parameters: time < 6 hr, dose 3 mg/kg, route oral; conditions: in vivo
[3] = Tmax in Sprague-Dawley rat at 3 mg/kg, po; format: ADME, organism-based; parameters: dose 3 mg/kg, route oral; conditions: in vivo
[4] = Volume of distribution at steady state in Sprague-Dawley rat at 1 mg/kg, iv; format: ADME, organism-based; parameters: dose 1 mg/kg, route intravenous; conditions: in vivo, read-out: Vdss
[5] = Total body clearance in Sprague-Dawley rat at 1 mg/kg, iv; format: ADME, organism-based; parameters: dose 1 mg/kg, route intravenous; conditions: in vivo
[6] = Cmax in Sprague-Dawley rat at 1 mg/kg, iv; format: ADME, organism-based; parameters: dose 1 mg/kg, route intravenous; conditions: in vivo
[7] = Cmax in Sprague-Dawley rat at 3 mg/kg, po; format: ADME, organism-based; parameters: dose 3 mg/kg, route oral; conditions: in vivo
[8] = Mean residence time in Sprague-Dawley rat at 1 mg/kg, iv; format: ADME, organism-based; parameters: dose 1 mg/kg, route intravenous; conditions: in vivo

Sequence of Growth hormone secretagogue receptor type 1 (Q92847 whole entry): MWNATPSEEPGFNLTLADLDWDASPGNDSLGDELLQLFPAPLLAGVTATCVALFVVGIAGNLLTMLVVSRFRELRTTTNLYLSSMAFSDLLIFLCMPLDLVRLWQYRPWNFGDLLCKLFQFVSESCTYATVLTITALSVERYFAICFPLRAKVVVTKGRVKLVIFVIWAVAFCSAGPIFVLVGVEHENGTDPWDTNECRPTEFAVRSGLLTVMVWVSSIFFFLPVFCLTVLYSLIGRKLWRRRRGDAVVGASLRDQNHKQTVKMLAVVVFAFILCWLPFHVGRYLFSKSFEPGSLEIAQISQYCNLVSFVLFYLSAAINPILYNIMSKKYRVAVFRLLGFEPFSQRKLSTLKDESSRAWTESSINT

Row | EC50 [1] [nM] | SMILES | also measured
1 | > 5010 | N[C@H]1CCN(C(=O)[C@H]2CCCCN2S(=O)(=O)c2ccc(-c3ccccc3)cc2)C1 | 
2 | 316 | N[C@H]1CCN(C(=O)[C@@H]2CCCCN2S(=O)(=O)c2ccc(-c3cccnc3)cc2)C1 | 
3 | 0.501 | Cc1ccc(-c2ccc(S(=O)(=O)N3C[C@H](O)C[C@H]3C(=O)N3CC[C@@H](N)C3)cc2F)o1 | 
4 | 2.51 | Cc1ccc(-c2ccc(S(=O)(=O)N3CCCC[C@H]3C(=O)N3C[C@@H](C)N[C@@H](C)C3)cc2F)o1 | 
5 | 0.0501 | Cc1ccc(-c2ccc(S(=O)(=O)N3CCCC[C@H]3C(=O)N3CC[C@@H](N)C3)cc2F)o1 | 
6 | 0.158 | Cc1ccc(-c2ccc(S(=O)(=O)N3CCCC[C@H]3C(=O)N3CC[C@H](N)C3)cc2F)o1 | 
7 | 15.8 | Cc1ccc(-c2ccc(S(=O)(=O)N3CC[C@H]3C(=O)N3CC[C@@H](N)C3)cc2F)o1 | 
8 | 7.94 | N[C@H]1CCN(C(=O)[C@@H]2CCCCN2S(=O)(=O)c2ccc(-c3ccccc3)cc2)C1 | 
9 | 15.8 | N[C@@H]1CCN(C(=O)[C@@H]2CCCCN2S(=O)(=O)c2ccc(-c3ccccc3)cc2)C1 | 
10 | 31.6 | N[C@@H]1CCN(C(=O)[C@@H]2CCCCN2S(=O)(=O)c2ccc(-c3ccco3)cc2)C1 | 
11 | 20 | N[C@H]1CCN(C(=O)[C@@H]2CCCCN2S(=O)(=O)c2ccc(NC(=O)c3ccccc3)cc2)C1 | 
12 | 2 | COc1cccc(C(=O)Nc2ccc(S(=O)(=O)N3CCCC[C@H]3C(=O)N3CC[C@H](N)C3)cc2)c1 | 
13 | 0.251 | Cc1ccc(-c2ccc(S(=O)(=O)N3CCCC[C@H]3C(=O)N3CC[C@@H](N)C3)cc2)o1 | 
14 | > 5010 | N[C@@H]1CCN(C(=O)[C@H]2CCCCN2S(=O)(=O)c2ccc(-c3ccccc3)cc2)C1 | 
15 | 10 | CNC1CCN(C(=O)[C@@H]2CCCCN2S(=O)(=O)c2ccc(-c3ccc(C)o3)cc2)C1 (stereo not given in full) | 
16 | 7.94 | Cc1ccc(-c2ccc(S(=O)(=O)N3CCCC[C@H]3C(=O)N3CCCNCC3)cc2)o1 | 
17 | 0.316 | N[C@@H]1CCN(C(=O)[C@@H]2CCCCN2S(=O)(=O)c2ccc(-c3cc(Cl)ccc3Cl)cc2)C1 | 
18 | 1.26 | Cc1ccc(-c2ccc(S(=O)(=O)N3CCNC[C@H]3C(=O)N3CC[C@@H](N)C3)cc2)o1 | 
19 | 31.6 | NC1CCN(C(=O)C2CCCCN2S(=O)(=O)c2ccc(-c3ccccc3)cc2)C1 (stereo not given) | 
20 | 5.01 | Cc1ccc(-c2ccc(S(=O)(=O)N3C[C@@H](O)C[C@H]3C(=O)N3CC[C@@H](N)C3)cc2F)o1 | 
21 | 1 | N[C@@H]1CCN(C(=O)[C@@H]2CCCCN2S(=O)(=O)c2ccc(-c3cc(F)ccc3F)cc2)C1 | 
22 | 0.2 | Cc1ccc(-c2ccc(S(=O)(=O)N3CC[C@H](O)[C@H]3C(=O)N3CC[C@@H](N)C3)cc2F)o1 | 
23 | 3.98 | N[C@H]1CCN(C(=O)[C@@H]2CCCCN2S(=O)(=O)c2ccc(NC(=O)c3ccccc3F)cc2)C1 | 
24 | 0.398 | Cc1ccc(-c2ccc(S(=O)(=O)N3CCC[C@H]3C(=O)N3CC[C@@H](N)C3)cc2F)o1 | half-life [2]: 144 min; AUC (Rattus norvegicus): 5 kg·min/L; Tmax [3]: 4 h; Vd [4]: 3.5 L/kg; clearance [5]: 25 mL/min/kg; Cmax [6]: 762 nM; Cmax [7]: 151 nM; MRT [8]: 2.4 h
25 | 3.16 | N[C@@H]1CCN(C(=O)[C@@H]2CCCCN2S(=O)(=O)c2ccc(-c3ccco3)c(F)c2)C1 | 
26 | 398 | N[C@@H]1CCN(C(=O)[C@@H]2CCCCN2S(=O)(=O)c2ccc(Br)cc2)C1 | 
27 | 6.31 | Cc1ccc(-c2ccc(S(=O)(=O)N3CCCC[C@H]3C(=O)N3C[C@@H](C)N[C@@H](C)C3)cc2)o1 | 
